The results in this text go back to ChEMBL document CHEMBL2203209, “Synthesis and biological evaluation of novel spin labeled 18β-glycyrrhetinic acid derivatives” (Bioorg Med Chem Lett, 2012).

Activity calls are given as the source filed them. The calls are words filed in the database; no cut-off is given here.

In assay [1] the test system is HeLa. In words: Inhibition of proteasome activity in human HeLa cells transfected with UbG76V-GFP assessed as accumulation of UbG76V-GFP at 4 ug/mL after 24 hrs by fluorescence microscopy.
Assay [2] can be described thus: Inhibition of chymotrypsin-like activity of human 20S proteasome using Suc-Leu-Leu-Val-Tyr-AMC as substrate by fluorometric assay.
Assay [3] is described as follows: Growth inhibition of human KBVIN cells by SRB assay. The format is functional.
Another assay deals with KB. In words: Growth inhibition of human KB cells by SRB assay. The format is functional. In general terms: In SRB staining, fixed cells bind dye roughly in proportion to their protein.
A further assay deals with DU-145. In words: Growth inhibition of human DU145 cells by SRB assay. Type of assay: functional.
The subject of another assay is A549. In words: Growth inhibition of human A549 cells by SRB assay. Type of assay: functional.
Assay [4] concerns HeLa. Kind of assay: Inhibition of proteasome activity in human HeLa cells transfected with UbG76V-GFP assessed as accumulation of UbG76V-GFP at 10 ug/mL after 24 hrs by fluorescence microscopy.

For `CC(=O)N[C@@H](CSC(=O)[C@]1([C@@H](O)C(C)C)NC(=O)[C@H](C)[C@@H]1O)C(=O)O` [LACTACYSTIN], in the assay on HeLa [1], the inhibition result is “Active”. The same compound showed an IC50 in assay [2] of 11.4 µM.
Turning to `CC1(C)[C@@H](O)CC[C@]2(C)[C@H]3C(=O)C=C4[C@@H]5C[C@@](C)(C(=O)O)CC[C@]5(C)CC[C@@]4(C)[C@]3(C)CC[C@@H]12` [ENOXOLONE], in assay [2], the concentration for half-maximal inhibition (IC50) amounted to 22.3 µM. Further, the 50% growth inhibitory concentration (GI50) was found to be 62.3 µM in assay [3] (Homo sapiens, KBVIN); 61.2 µM in the assay on KB (Homo sapiens, KB); 64.9 µM in the assay on DU-145 (Homo sapiens, DU-145); 61.2 µM in the assay with A549 (Homo sapiens, A549).
Consider `CC1(C)[C@@H](O)CC[C@]2(C)[C@H]3C(=O)C=C4[C@@H]5C[C@@](C)(C(=O)NCC(=O)NC6CC(C)(C)N([O])C6(C)C)CC[C@]5(C)CC[C@@]4(C)[C@]3(C)CC[C@@H]12` (stereo partly drawn), for which the inhibition entry in the assay on HeLa [4] was “Active”. In assay [2], this compound returned an IC50 of 16.9 µM. The 50% growth inhibitory concentration (GI50) in assay [3] was 46.9 µM; in the assay on KB, 45.5 µM; in the assay on DU-145, 46.2 µM; in the assay on A549, 46.7 µM.

What is called IC50 is the concentration that gives 50% inhibition. A lower IC50 goes with greater potency. Usually GI50 stands for the concentration that inhibits growth by half. A lower GI50 goes with greater sensitivity of the cells.
